# Reference: ChEMBL document CHEMBL3885881, “DrugMatrix”
# Species on record: Rattus norvegicus
# Test: DrugMatrix - Regimen: Daily Repeat
# Assay type: toxicity, organism-based, Sprague-Dawley
# Parameters: regimen Daily Repeat, gender Male, age 6-8 weeks
# Conditions: in vivo, sc, route subcutaneous, vehicle 100 % WATER; for ABSOLUTE BASOPHIL / ABSOLUTE EOSINOPHIL / ABSOLUTE LYMPHOCYTE / ABSOLUTE MONOCYTE / ABSOLUTE SEGMENTED NEUTROPHIL / BASOPHIL / EOSINOPHIL / ERYTHROCYTE COUNT / HEMATOCRIT / HEMOGLOBIN / LEUKOCYTE COUNT / LYMPHOCYTE / MEAN CORPUSCULAR HEMOGLOBIN / MEAN CORPUSCULAR HEMOGLOBIN CONCENTRATION / MEAN CORPUSCULAR VOLUME / MONOCYTE / NEUTROPHIL / NUCLEATED RED BLOOD CELLS / PLATELET COUNT: tissue Blood; for ALANINE AMINOTRANSFERASE / ALBUMIN / ALKALINE PHOSPHATASE / ASPARTATE AMINOTRANSFERASE / BLOOD UREA NITROGEN / CARBON DIOXIDE / CHLORIDE / CHOLESTEROL / CREATINE PHOSPHOKINASE / CREATININE / GLUCOSE / LACTATE DEHYDROGENASE / LIPASE / PHOSPHORUS / POTASSIUM / SODIUM / TOTAL BILIRUBIN / TOTAL PROTEIN / URIC ACID: tissue Plasma
# [1] = 20 mg/kg, 72 h, dose level Low, time 3 day
# [2] = 20 mg/kg, 120 h, dose level Low, time 5 day
# [3] = 71 mg/kg, 72 h, dose level High, time 3 day
# [4] = 71 mg/kg, 120 h, dose level High, time 5 day
smiles,measurement,setting,value
CCN(CC)CC(=O)Nc1c(C)cccc1C [LIDOCAINE],ABSOLUTE BASOPHIL,[1],0 CELLS/uL
same,ABSOLUTE EOSINOPHIL,[1],58 CELLS/uL
same,ABSOLUTE LYMPHOCYTE,[1],13101.33 CELLS/uL
same,ABSOLUTE MONOCYTE,[1],107 CELLS/uL
same,ABSOLUTE SEGMENTED NEUTROPHIL,[1],1100.33 CELLS/uL
same,BASOPHIL,[1],0%
same,EOSINOPHIL,[1],0.33%
same,ERYTHROCYTE COUNT,[1],5.32 x10E6/uL
same,HEMATOCRIT,[1],35.17%
same,HEMOGLOBIN,[1],13.77 G/DL
same,LEUKOCYTE COUNT,[1],14.37 x10E3/uL
same,LYMPHOCYTE,[1],91.33%
same,MEAN CORPUSCULAR HEMOGLOBIN,[1],25.9 pg
same,MEAN CORPUSCULAR HEMOGLOBIN CONCENTRATION,[1],39.17 G/DL
same,MEAN CORPUSCULAR VOLUME,[1],66.2 fL
same,MONOCYTE,[1],0.67%
same,NEUTROPHIL,[1],7.67%
same,NUCLEATED RED BLOOD CELLS,[1],0 /100WBC
same,PLATELET COUNT,[1],1245 x10E3/uL
same,ALANINE AMINOTRANSFERASE,[1],52.67 u/L
same,ALBUMIN,[1],4.23 G/DL
same,ALKALINE PHOSPHATASE,[1],369 u/L
same,ASPARTATE AMINOTRANSFERASE,[1],87.33 u/L
same,BLOOD UREA NITROGEN,[1],16 mg/dL
same,CARBON DIOXIDE,[1],26.67 mmol/L
same,CHLORIDE,[1],102.67 MEQ/L
same,CHOLESTEROL,[1],79.33 mg/dL
same,CREATINE PHOSPHOKINASE,[1],215.67 u/L
same,CREATININE,[1],0.21 mg/dL
same,GLUCOSE,[1],154.67 mg/dL
same,LACTATE DEHYDROGENASE,[1],355.67 u/L
same,LIPASE,[1],9.67 u/L
same,PHOSPHORUS,[1],15.3 mg/dL
same,POTASSIUM,[1],7.3 MEQ/L
same,SODIUM,[1],148.67 MEQ/L
same,TOTAL BILIRUBIN,[1],0.23 mg/dL
same,TOTAL PROTEIN,[1],6.03 G/DL
same,URIC ACID,[1],1.9 mg/dL
same,ABSOLUTE BASOPHIL,[2],0 CELLS/uL
same,ABSOLUTE EOSINOPHIL,[2],102.67 CELLS/uL
same,ABSOLUTE LYMPHOCYTE,[2],14629.33 CELLS/uL
same,ABSOLUTE MONOCYTE,[2],338.67 CELLS/uL
same,ABSOLUTE SEGMENTED NEUTROPHIL,[2],1862.67 CELLS/uL
same,BASOPHIL,[2],0%
same,EOSINOPHIL,[2],0.67%
same,ERYTHROCYTE COUNT,[2],5.48 x10E6/uL
same,HEMATOCRIT,[2],33.93%
same,HEMOGLOBIN,[2],13.57 G/DL
same,LEUKOCYTE COUNT,[2],16.93 x10E3/uL
same,LYMPHOCYTE,[2],86.67%
same,MEAN CORPUSCULAR HEMOGLOBIN,[2],24.77 pg
same,MEAN CORPUSCULAR HEMOGLOBIN CONCENTRATION,[2],40 G/DL
same,MEAN CORPUSCULAR VOLUME,[2],61.93 fL
same,MONOCYTE,[2],2%
same,NEUTROPHIL,[2],10.67%
same,NUCLEATED RED BLOOD CELLS,[2],0 /100WBC
same,PLATELET COUNT,[2],1256.33 x10E3/uL
same,ALANINE AMINOTRANSFERASE,[2],59.33 u/L
same,ALBUMIN,[2],3.73 G/DL
same,ALKALINE PHOSPHATASE,[2],375.67 u/L
same,ASPARTATE AMINOTRANSFERASE,[2],92 u/L
same,BLOOD UREA NITROGEN,[2],17.67 mg/dL
same,CARBON DIOXIDE,[2],26 mmol/L
same,CHLORIDE,[2],108 MEQ/L
same,CHOLESTEROL,[2],77.33 mg/dL
same,CREATINE PHOSPHOKINASE,[2],284 u/L
same,CREATININE,[2],0.28 mg/dL
same,GLUCOSE,[2],183.33 mg/dL
same,LACTATE DEHYDROGENASE,[2],154.67 u/L
same,LIPASE,[2],7.67 u/L
same,PHOSPHORUS,[2],13.6 mg/dL
same,POTASSIUM,[2],6.31 MEQ/L
same,SODIUM,[2],149.97 MEQ/L
same,TOTAL BILIRUBIN,[2],0.2 mg/dL
same,TOTAL PROTEIN,[2],5.93 G/DL
same,URIC ACID,[2],2.2 mg/dL
same,ABSOLUTE BASOPHIL,[3],0 CELLS/uL
same,ABSOLUTE EOSINOPHIL,[3],49.33 CELLS/uL
same,ABSOLUTE LYMPHOCYTE,[3],11993.67 CELLS/uL
same,ABSOLUTE MONOCYTE,[3],172.33 CELLS/uL
same,ABSOLUTE SEGMENTED NEUTROPHIL,[3],684.67 CELLS/uL
same,BASOPHIL,[3],0%
same,EOSINOPHIL,[3],0.33%
same,ERYTHROCYTE COUNT,[3],5.73 x10E6/uL
same,HEMATOCRIT,[3],35.87%
same,HEMOGLOBIN,[3],14.23 G/DL
same,LEUKOCYTE COUNT,[3],12.9 x10E3/uL
same,LYMPHOCYTE,[3],92.67%
same,MEAN CORPUSCULAR HEMOGLOBIN,[3],24.83 pg
same,MEAN CORPUSCULAR HEMOGLOBIN CONCENTRATION,[3],39.7 G/DL
same,MEAN CORPUSCULAR VOLUME,[3],62.57 fL
same,MONOCYTE,[3],1.33%
same,NEUTROPHIL,[3],5.67%
same,NUCLEATED RED BLOOD CELLS,[3],0 /100WBC
same,PLATELET COUNT,[3],1268.67 x10E3/uL
same,ALANINE AMINOTRANSFERASE,[3],46.33 u/L
same,ALBUMIN,[3],4.37 G/DL
same,ALKALINE PHOSPHATASE,[3],401 u/L
same,ASPARTATE AMINOTRANSFERASE,[3],83.67 u/L
same,BLOOD UREA NITROGEN,[3],14.67 mg/dL
same,CARBON DIOXIDE,[3],31.33 mmol/L
same,CHLORIDE,[3],101 MEQ/L
same,CHOLESTEROL,[3],76 mg/dL
same,CREATINE PHOSPHOKINASE,[3],167 u/L
same,CREATININE,[3],0.16 mg/dL
same,GLUCOSE,[3],163.67 mg/dL
same,LACTATE DEHYDROGENASE,[3],124.67 u/L
same,LIPASE,[3],8.67 u/L
same,PHOSPHORUS,[3],15.9 mg/dL
same,POTASSIUM,[3],7.01 MEQ/L
same,SODIUM,[3],145.9 MEQ/L
same,TOTAL BILIRUBIN,[3],0.17 mg/dL
same,TOTAL PROTEIN,[3],6.07 G/DL
same,URIC ACID,[3],1.8 mg/dL
same,ABSOLUTE BASOPHIL,[4],0 CELLS/uL
same,ABSOLUTE EOSINOPHIL,[4],73.33 CELLS/uL
same,ABSOLUTE LYMPHOCYTE,[4],17902.33 CELLS/uL
same,ABSOLUTE MONOCYTE,[4],276 CELLS/uL
same,ABSOLUTE SEGMENTED NEUTROPHIL,[4],1781.67 CELLS/uL
same,BASOPHIL,[4],0%
same,EOSINOPHIL,[4],0.33%
same,ERYTHROCYTE COUNT,[4],5.66 x10E6/uL
same,HEMATOCRIT,[4],36.7%
same,HEMOGLOBIN,[4],14.53 G/DL
same,LEUKOCYTE COUNT,[4],20.03 x10E3/uL
same,LYMPHOCYTE,[4],89%
same,MEAN CORPUSCULAR HEMOGLOBIN,[4],25.67 pg
same,MEAN CORPUSCULAR HEMOGLOBIN CONCENTRATION,[4],39.6 G/DL
same,MEAN CORPUSCULAR VOLUME,[4],64.93 fL
same,MONOCYTE,[4],1.33%
same,NEUTROPHIL,[4],9.33%
same,NUCLEATED RED BLOOD CELLS,[4],0 /100WBC
same,PLATELET COUNT,[4],1384.67 x10E3/uL
same,ALANINE AMINOTRANSFERASE,[4],60 u/L
same,ALBUMIN,[4],4.13 G/DL
same,ALKALINE PHOSPHATASE,[4],376.33 u/L
same,ASPARTATE AMINOTRANSFERASE,[4],98.33 u/L
same,BLOOD UREA NITROGEN,[4],15.33 mg/dL
same,CARBON DIOXIDE,[4],33.67 mmol/L
same,CHLORIDE,[4],101 MEQ/L
same,CHOLESTEROL,[4],68.33 mg/dL
same,CREATINE PHOSPHOKINASE,[4],240.33 u/L
same,CREATININE,[4],0.42 mg/dL
same,GLUCOSE,[4],147.33 mg/dL
same,LACTATE DEHYDROGENASE,[4],198 u/L
same,LIPASE,[4],10.67 u/L
same,PHOSPHORUS,[4],14.23 mg/dL
same,POTASSIUM,[4],6.88 MEQ/L
same,SODIUM,[4],148.27 MEQ/L
same,TOTAL BILIRUBIN,[4],0.2 mg/dL
same,TOTAL PROTEIN,[4],6.17 G/DL
same,URIC ACID,[4],1.4 mg/dL
